≈ marks a conversion by molar mass, not a printed value.
Conditions: buffer; pH 7.4; 200.0 µM

Going from `COCCCNC(=O)[C@H]1N2C(=O)c3ccccc3C2SC1(C)C` (stereo partly specified) to `COCCCNC(=O)Cc1ccc(-n2c(C)nc3cccnc32)cc1`, the solubility kinetic rises from 45.4 µg/mL (≈ 136 µM) to over 50.8 µg/mL.

`O=C(COC(=O)c1ccc[n+]([O-])c1)Nc1ccccc1OC(F)F` and `CCOC(=O)NC(=O)COC(=O)c1cccc2ccccc12` cannot be ordered by solubility kinetic: over 50.7 µg/mL for the first, over 45.2 µg/mL for the second.

Going from `CSc1ncccc1C(=O)OCC(=O)NC1CC1` to `CSc1ncccc1C(=O)NC1CCCCCC1`, the solubility kinetic falls from over 39.9 µg/mL to 35.5 µg/mL (≈ 134 µM).

First: Cc1sc(NC(=O)Nc2ccccc2)c(C(N)=O)c1C
Second: Cc1csc(Nc2nc(N)c(C(=O)Nc3ccccc3)o2)n1
The solubility kinetic of the first is 1.5-fold higher: 5.1 µg/mL (≈ 17.6 µM) for the first, 3.3 µg/mL (≈ 10.5 µM) for the second.

`O=C(/C=C/c1cccs1)Nc1nccs1` and `Oc1ccc(-c2csc(Nc3ncccn3)n2)cc1` are within 1.5-fold of each other in solubility kinetic: 0.7 µg/mL (≈ 2.96 µM) for the first, 1 µg/mL (≈ 3.7 µM) for the second.

Going from `Cc1ccc(S(=O)(=O)CC(O)COc2ccc(C#N)cc2)cc1` (stereo unspecified) to `Cc1ccc(N2CCN(CC(O)COc3ccccc3)CC2)cc1` (stereo unspecified), the solubility kinetic falls from over 49.7 µg/mL to 30.1 µg/mL (≈ 92.2 µM).

`CSCCC(NC(=O)COc1ccccc1)C(=O)N1CCCC(C)C1` (stereo unspecified) and `COc1ccccc1NC(=O)C1CCN(C(=O)c2ccco2)CC1` cannot be ordered by solubility kinetic: over 54.7 µg/mL for the first, over 49.3 µg/mL for the second.

First: CC(=O)c1ccc(N2CCN(c3ncccn3)CC2)c([N+](=O)[O-])c1
Second: CN1CCN(c2ccncc2S(=O)(=O)N2CCCCC2)CC1
The solubility kinetic of the first is lower: 39.2 µg/mL (≈ 120 µM) for the first, over 48.7 µg/mL for the second.

`NC(=O)C1Cc2ccccc2CN1S(=O)(=O)c1cccs1` (stereo unspecified) and `Cc1ccsc1C(=O)NCC(=O)OCc1ccccc1` cannot be ordered by solubility kinetic: over 48.4 µg/mL for the first, over 43.4 µg/mL for the second.

Going from `Cc1cc(C)c2oc(C(=O)NCc3ccccc3)cc(=O)c2c1` to `COc1cc2ccccc2cc1C(=O)NCc1ccncc1`, the solubility kinetic rises from 2.3 µg/mL (≈ 7.48 µM) to over 43.9 µg/mL.

Going from `COCCNS(=O)(=O)c1cc(OC)c(C)cc1C` to `CCOc1ccc(OCC)c(S(=O)(=O)n2ccnc2C)c1`, the solubility kinetic falls from over 41 µg/mL to 19.7 µg/mL (≈ 63.5 µM).

`Cc1cccc(C)c1NC(=O)COC(=O)C1CC1` and `Cc1cccc(C)c1OCC(O)CN1CCCCC1.Cl` (stereo unspecified) are within 1.5-fold of each other in solubility kinetic: 32.7 µg/mL (≈ 132 µM) for the first, 43.4 µg/mL for the second.

Going from `COc1cccc(-c2nc(-c3ccncc3)no2)c1` to `COC(=O)CNC(=O)c1cc(-c2ccncc2)nc2ccccc12`, the solubility kinetic rises from 3.5 µg/mL (≈ 13.8 µM) to over 48.2 µg/mL.

Compared with `O=C([O-])c1ncc(Cl)c(Cl)c1Cl.[NH4+]`, `COc1ccc(NC(=O)Cc2c(Cl)cccc2Cl)cn1` is lower in solubility kinetic: over 36.5 µg/mL for the first, 6.2 µg/mL (≈ 19.9 µM) for the second.

Compared with `O=C1C2C3CCC(CC3)C2C(=O)N1c1ccccc1` (stereo unspecified), `Cc1cc(NC(=O)C2CC(=O)N(c3ccccc3Cl)C2)no1` (stereo unspecified) is higher in solubility kinetic: 11.6 µg/mL (≈ 45.4 µM) for the first, over 48 µg/mL for the second.

First: Nc1nc2ccccc2cc1S(=O)(=O)c1ccccc1
Second: CC(Sc1nc2ccc(C(=O)c3ccccc3)cc2[nH]1)C(=O)O (stereo unspecified)
The solubility kinetic of the first is lower: 1.1 µg/mL (≈ 3.87 µM) for the first, over 49 µg/mL for the second.

Compared with `O=C(c1c(F)cccc1F)N(C1CCCCC1)C1CCCCC1`, `CC(=O)c1cccc(OCC(O)CNCC2CCCCC2)c1` (stereo unspecified) is higher in solubility kinetic: 1 µg/mL (≈ 3.11 µM) for the first, over 45.8 µg/mL for the second.

`Cc1ccc(C(=O)NC(C)c2ccncc2)o1` (stereo unspecified) and `Cc1ccc(C(=O)Cn2cncn2)cc1.Cl` cannot be ordered by solubility kinetic: over 34.5 µg/mL for the first, over 35.7 µg/mL for the second.

First: COc1ccc(C(CCNCc2ccc(OC)c(OC)c2)c2ccc(F)cc2)cc1 (stereo unspecified)
Second: COc1ccc(C=NOCC(=O)OCC(=O)Nc2ccc(OC)cc2)cc1
The solubility kinetic of the first is higher: over 61.4 µg/mL for the first, 16.1 µg/mL (≈ 43.2 µM) for the second.

Going from `O=C(NCc1ccccc1)c1ccc(NC(=O)C2CCCO2)cc1` (stereo unspecified) to `S=C(NCc1ccccc1)NCc1cccc(Cl)c1`, the solubility kinetic falls from over 48.7 µg/mL to 23.2 µg/mL (≈ 79.8 µM).

Compared with `CC1CCC(NC(=O)c2cc3c(s2)CCCC3)CC1` (stereo unspecified), `O=C(NCc1cccnc1)C1CCC(c2ccc(Cl)cc2)CC1` (stereo unspecified) is 5.3-fold higher in solubility kinetic: 2.8 µg/mL (≈ 10.1 µM) for the first, 14.9 µg/mL (≈ 45.3 µM) for the second.

Going from `CN(Cc1c(F)cccc1Cl)C(=O)c1ccc(NC(=O)CC2SC(N3CCCCC3)=NC2=O)cc1` (stereo unspecified) to `Cc1ccc(S(=O)(=O)Nc2ccc(F)cc2)cc1C(=O)N1CCOCC1`, the solubility kinetic rises from 53.2 µg/mL (≈ 103 µM) to over 56.8 µg/mL.

Going from `CN(CC(=O)NCCc1ccccc1)CC(=O)Nc1cccc(F)c1` to `Cc1cccc(NC(=S)NCCc2ccc(Cl)cc2)c1C`, the solubility kinetic falls from over 51.5 µg/mL to 0.6 µg/mL (≈ 1.88 µM).

`COc1cc(OC)cc(C(=O)NN2CCOCC2)c1` and `Cc1[nH]c2ccccc2c1C(=O)C(=O)N1CCOCC1` cannot be ordered by solubility kinetic: over 39.9 µg/mL for the first, over 40.8 µg/mL for the second.

Compared with `Cc1cc(OCCCn2ccnc2)cc(C(C)C)c1`, `CC(C)CN1CCC(CN(C)Cc2nc(-c3cnccn3)no2)CC1` is 1.9-fold higher in solubility kinetic: 23.3 µg/mL (≈ 90.2 µM) for the first, 45.2 µg/mL (≈ 131 µM) for the second.

Compared with `O=C(CNS(=O)(=O)c1ccc(Br)cc1)N1CCN(Cc2ccccc2)CC1`, `Cl.OC(CN1CCNCC1)Cn1c2ccccc2c2ccccc21` (stereo unspecified) is 7.6-fold higher in solubility kinetic: 7.2 µg/mL (≈ 15.9 µM) for the first, 54.4 µg/mL for the second.

`O=C(CCn1cnc2ccccc2c1=O)Nc1cccc(Cl)c1Cl` and `NC(=O)COc1ccc2cc(-c3ccccc3)c(=O)oc2c1` are the same in solubility kinetic: 3.8 µg/mL (≈ 10.5 µM) for the first, 3.8 µg/mL (≈ 12.9 µM) for the second.

Going from `C=CCSc1nc(C)c(CC(=C)C)c(=O)[nH]1` to `Cc1cc(NC(=O)c2c(C)noc2C)no1`, the solubility kinetic rises from 32.2 µg/mL (≈ 136 µM) to over 33.2 µg/mL.

Compared with `CN1C(=O)S/C(=C/c2ccc(OCc3cccc(C(=O)O)c3)cc2)C1=O`, `O=C(O)c1ccc2c(=O)n(-c3ccc(F)cc3)c(=S)[nH]c2c1` is higher in solubility kinetic: 10.6 µg/mL (≈ 28.7 µM) for the first, over 47.4 µg/mL for the second.

Compared with `CC1(C)Oc2ccc3ccc(=O)oc3c2/C(=N/O)C1=O`, `CC(C)c1ccccc1NC(=O)Nc1ccc2c(c1)OCO2` is lower in solubility kinetic: over 41 µg/mL for the first, 2.7 µg/mL (≈ 9.05 µM) for the second.

For `O=Cc1c(NCCN2CCCC2)c2ccccc2[nH]c1=O`, the solubility kinetic was over 42.8 µg/mL.
